The values below come from patent US20240115711A1, “Novel Bifunctional Molecules For Targeted Protein Degradation” (Amphista Therapeutics Limited, priority 2020, published 2024).

Each structure is given as a SMILES string.

The target of this assay is T1, mutant EGFR (L858R) (Homo sapiens, UniProt P00533, L858R/T790M).
T1 construct: endogenous in cells; host or cells: NCI-H1975
In words: Assay 8 - Degradation of mutant EGFR by immunoblot (NCI-H1975 cells). Type of assay: cell-based. As to conditions: after 24 h treatment with 1000 nM. The procedure: 1.8 Assay 8—Degradation of Mutant EGFR by Immunoblot.
NCI-H1975 (1.5×10^5) cells were seeded in 12-well plates (1 mL medium) overnight prior to 24 h treatment with test compounds at the desired concentration (DMSO final concentration 0.1%). After 24 h incubation, cells were washed with PBS and lysed with RIPA buffer (Sigma) supplemented with 1× protease inhibitor cocktail (Roche) and 1 U/mL Benzonase (Merck). Lysates were clarified by centrifugation (17,000×g, 20 min, 4° C.) and the total protein content of the supernatant was quantified using a BCA assay. Samples were prepared using equal amounts of total protein and LDS sample buffer (Invitrogen). […] Blots were visualised using a Bio-Rad ChemiDoc MP Imaging System, and band quantification was performed using Image Studio software (LiCor). […] Degradation data was plotted and analysed using Prism (Graphpad, version 8).
The degradation of target protein mutant EGFR (L858R) was detected according to the procedure outlined in assay 8 for the compound A67.

T1 sequence (P00533 25-1210 T790M/L858R): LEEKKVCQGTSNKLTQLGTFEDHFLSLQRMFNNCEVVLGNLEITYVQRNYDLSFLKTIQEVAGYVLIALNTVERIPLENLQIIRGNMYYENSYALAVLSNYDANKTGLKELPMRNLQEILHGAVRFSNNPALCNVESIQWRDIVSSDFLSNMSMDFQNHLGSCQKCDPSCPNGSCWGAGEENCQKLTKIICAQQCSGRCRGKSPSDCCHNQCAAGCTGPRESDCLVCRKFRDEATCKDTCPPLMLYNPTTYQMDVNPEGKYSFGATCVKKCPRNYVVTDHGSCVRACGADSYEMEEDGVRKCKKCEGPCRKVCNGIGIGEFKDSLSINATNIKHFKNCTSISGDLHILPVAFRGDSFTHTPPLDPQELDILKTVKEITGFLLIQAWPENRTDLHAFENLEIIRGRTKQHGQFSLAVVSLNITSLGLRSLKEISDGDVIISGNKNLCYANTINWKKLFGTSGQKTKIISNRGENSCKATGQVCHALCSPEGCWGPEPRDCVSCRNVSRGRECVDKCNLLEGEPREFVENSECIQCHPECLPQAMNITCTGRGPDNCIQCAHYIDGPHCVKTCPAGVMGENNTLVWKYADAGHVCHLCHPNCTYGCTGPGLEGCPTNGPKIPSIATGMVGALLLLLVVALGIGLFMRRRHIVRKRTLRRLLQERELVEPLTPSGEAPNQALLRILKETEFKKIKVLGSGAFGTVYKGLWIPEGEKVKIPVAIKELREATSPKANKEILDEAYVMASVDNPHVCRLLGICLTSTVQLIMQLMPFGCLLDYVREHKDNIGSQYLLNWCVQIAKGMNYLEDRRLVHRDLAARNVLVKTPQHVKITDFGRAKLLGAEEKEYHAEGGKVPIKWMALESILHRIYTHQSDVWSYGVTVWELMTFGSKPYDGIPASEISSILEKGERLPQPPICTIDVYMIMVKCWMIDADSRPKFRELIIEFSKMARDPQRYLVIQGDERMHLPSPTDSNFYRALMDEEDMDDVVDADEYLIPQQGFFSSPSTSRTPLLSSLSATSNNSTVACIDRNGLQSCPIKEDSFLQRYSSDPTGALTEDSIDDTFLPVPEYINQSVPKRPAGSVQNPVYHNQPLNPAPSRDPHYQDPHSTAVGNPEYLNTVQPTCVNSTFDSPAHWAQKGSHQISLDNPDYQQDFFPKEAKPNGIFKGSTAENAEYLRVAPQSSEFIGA

Consider `CCCC(c1ccc(CCC(=O)NCCCN2CCN(CCCNC(=O)c3nn(C(C)C)c4cc(Nc5ccnc(N6CCC(OC)CC6)n5)ncc34)CC2)cc1)N(C)C(=O)/C(C#N)=C/c1nccs1` (stereo not shown) [Example A67, (E)-N-(3-(4-(3-(3-(4-(1-(2-cyano-N-methyl-3-(thiazol-2-yl)acrylamido)butyl)phenyl)propanamido)propyl)piperazin-1-yl)propyl)-1-isopropyl-6-((2-(4-methoxypiperidin-1-yl)pyrimidin-4-yl)amino)-1H-pyrazolo[4,3-c]pyridine-3-carboxamide], for which the “residual EGFR (L858R) abundance” value is given as “less than 50%”.
